Structures are written as SMILES.

Series [1] in a line: Whole Blood Stability Assay (mouse whole blood). Type of series: in vitro ADME. The conditions noted are these: CD-1 mouse blood, EDTA-K2, final conc. 2 μM, 37° C., 0-120 min; for half-life at 2 μM: male, fresh whole blood, read-out: Mouse Whole Blood Stability t1/2. In outline:
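Compound at 2 μM final was incubated at 37 °C in fresh EDTA-K2 blood from male CD-1 mice. Samples at 0, 10, 30, 60 and 120 min were protein-precipitated with acetonitrile and analysed by LC-MS/MS. % remaining was derived from analyte/internal-standard peak area ratios.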

Series [2] can be described thus: Plasma Stability Assay (human plasma). In kind it is in vitro ADME. Particulars: both sexes; pooled human plasma, heparin, final conc. 2 μM, 37° C., 0-120 min; read-out: Human Plasma Stability t1/2. In outline: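 Compound at 2 μM final in pooled heparinised plasma (3 male, 3 female), incubated at 37° C with sampling at 0, 10, 30, 60 and 120 min. Acetonitrile stop, LC-MS/MS; % remaining from analyte/internal-standard peak area ratio relative to T0.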

For the compound `CCc1c(F)ccc2cc(OC(=O)N3CCCC[C@@H]3C)cc(N3CCc4c(nc(OC[C@@]56CCCN5C[C@H](F)C6)nc4N4CCC[C@]5(C4)NC(=O)NC5=O)C3)c12` [Example 55, 4-(4-((R)-2,4-dioxo-1,3,7-triazaspiro[4.5]decan-7-yl)-2-(((2R,7aS)-2-fluorotetrahydro-1H-pyrrolizin-7a(5H)-yl)methoxy)-5,8-dihydropyrido[3,4-d]pyrimidin-7(6H)-yl)-5-ethyl-6-fluoronaphthalen-2-yl(S)-2-methylpiperidine-1-carboxylate], the half-life at 2 μM in series [1] and in series [2] was over 289 min throughout.

For the compound `CCOC(=O)Oc1cc(N2CCc3c(nc(OC[C@@]45CCCN4C[C@H](F)C5)nc3N3CCC[C@]4(C3)NC(=O)NC4=O)C2)c2c(CC)c(F)ccc2c1` [Example 36, 4-(4-((R)-2,4-dioxo-1,3,7-triazaspiro[4.5]decan-7-yl)-2-(((2R,7aS)-2-fluorotetrahydro-1H-pyrrolizin-7a(5H)-yl)methoxy)-5,8-dihydropyrido[3,4-d]pyrimidin-7(6H)-yl)-5-ethyl-6-fluoronaphthalen-2-yl ethyl carbonate], the half-life at 2 μM worked out at 3 min in series [1] and 33 min in series [2].

In the case of `CCc1c(F)ccc2cc(OC(=O)C(C)(C)C)cc(N3CCc4c(nc(OC[C@@]56CCCN5C[C@H](F)C6)nc4N4CCC[C@]5(C4)NC(=O)NC5=O)C3)c12` [Example 39, 4-(4-((R)-2,4-dioxo-1,3,7-triazaspiro[4.5]decan-7-yl)-2-(((2R,7aS)-2-fluorotetrahydro-1H-pyrrolizin-7a(5H)-yl)methoxy)-5,8-dihydropyrido[3,4-d]pyrimidin-7(6H)-yl)-5-ethyl-6-fluoronaphthalen-2-yl pivalate], the “Mouse Whole Blood Stability t1/2” value in series [1] was determined as 1 min. The half-life at 2 μM in series [2] is over 289 min.

With `CCc1c(F)ccc2cc(OC(=O)C(C)C)cc(-c3ncc4c(N5C[C@@H]6C[C@H](C5)[C@H](O)C6)nc(OC[C@@]56CCCN5C[C@H](F)C6)nc4c3F)c12` [Example 3, 5-ethyl-6-fluoro-4-(8-fluoro-2-(((2R,7aS)-2-fluorotetrahydro-1H-pyrrolizin-7a(5H)-yl)methoxy)-4-((1R,5R,6R)-6-hydroxy-3-azabicyclo[3.2.1]octan-3-yl)pyrido[4,3-d]pyrimidin-7-yl)naphthalen-2-yl isobutyrate], the half-life at 2 μM in series [1] is 3 min; in series [2], 27 min.

As to `CCc1c(F)ccc2cc(OC(=O)OC)cc(-c3ncc4c(N5C[C@@H]6C[C@H](C5)[C@H](O)C6)nc(OC[C@@]56CCCN5C[C@H](F)C6)nc4c3F)c12` [Example 9, 5-ethyl-6-fluoro-4-(8-fluoro-2-(((2R,7aS)-2-fluorotetrahydro-1H-pyrrolizin-7a(5H)-yl)methoxy)-4-((1R,5R,6R)-6-hydroxy-3-azabicyclo[3.2.1]octan-3-yl)pyrido[4,3-d]pyrimidin-7-yl)naphthalen-2-yl methyl carbonate], the “Mouse Whole Blood Stability t1/2” value in series [1] was found to be 1 min. Besides, the half-life at 2 μM in series [2] was 9 min.

On to `CCc1c(F)ccc2cc(OC(=O)N3CCCCC3)cc(-c3ncc4c(N5C[C@@H]6C[C@H](C5)[C@H](O)C6)nc(OC[C@@]56CCCN5C[C@H](F)C6)nc4c3F)c12` [Example 7, 5-ethyl-6-fluoro-4-(8-fluoro-2-(((2R,7aS)-2-fluorotetrahydro-1H-pyrrolizin-7a(5H)-yl)methoxy)-4-((1R,5R,6R)-6-hydroxy-3-azabicyclo[3.2.1]octan-3-yl)pyrido[4,3-d]pyrimidin-7-yl)naphthalen-2-yl piperidine-1-carboxylate], for which the half-life at 2 μM in series [1] and in series [2] was over 289 min in each case.

On to `CCc1c(F)ccc2cc(OC(=O)OC(C)(C)C)cc(-c3ncc4c(N5C[C@@H]6C[C@H](C5)[C@H](O)C6)nc(OC[C@@]56CCCN5C[C@H](F)C6)nc4c3F)c12` [Example 19, tert-butyl (5-ethyl-6-fluoro-4-(8-fluoro-2-(((2R,7aS)-2-fluorotetrahydro-1H-pyrrolizin-7a(5H)-yl)methoxy)-4-((1R,5R,6R)-6-hydroxy-3-azabicyclo[3.2.1]octan-3-yl)pyrido[4,3-d]pyrimidin-7-yl)naphthalen-2-yl) carbonate], for which the half-life at 2 μM in series [1] is 3 min; in series [2], over 289 min.

`CCc1c(F)ccc2cc(OCOC(=O)N(C)C)cc(N3CCc4c(nc(OC[C@@]56CCCN5C[C@H](F)C6)nc4N4CCC[C@]5(C4)NC(=O)NC5=O)C3)c12` [Example 52, ((4-(4-((R)-2,4-dioxo-1,3,7-triazaspiro[4.5]decan-7-yl)-2-(((2R,7aS)-2-fluorotetrahydro-1H-pyrrolizin-7a(5H)-yl)methoxy)-5,8-dihydropyrido[3,4-d]pyrimidin-7(6H)-yl)-5-ethyl-6-fluoronaphthalen-2-yl)oxy)methyl dimethylcarbamate]: the half-life at 2 μM in series [1] and in series [2] was over 289 min throughout.

`CCc1c(F)ccc2cc(OC(=O)C3CCC3)cc(-c3ncc4c(N5C[C@@H]6C[C@H](C5)[C@H](O)C6)nc(OC[C@@]56CCCN5C[C@H](F)C6)nc4c3F)c12` [Example 13, 5-ethyl-6-fluoro-4-(8-fluoro-2-(((2R,7aS)-2-fluorotetrahydro-1H-pyrrolizin-7a(5H)-yl)methoxy)-4-((1R,5R,6R)-6-hydroxy-3-azabicyclo[3.2.1]octan-3-yl)pyrido[4,3-d]pyrimidin-7-yl)naphthalen-2-yl cyclobutanecarboxylate]: the half-life at 2 μM in series [1] was found to be 6 min; in series [2], 16 min.

On to `CCc1c(F)ccc2cc(OC(=O)N3CCCCC3)cc(N3CCc4c(nc(OC[C@@]56CCCN5C[C@H](F)C6)nc4N4CCC[C@]5(C4)NC(=O)NC5=O)C3)c12` [Example 48, 4-(4-((R)-2,4-dioxo-1,3,7-triazaspiro[4.5]decan-7-yl)-2-(((2R,7aS)-2-fluorotetrahydro-1H-pyrrolizin-7a(5H)-yl)methoxy)-5,8-dihydropyrido[3,4-d]pyrimidin-7(6H)-yl)-5-ethyl-6-fluoronaphthalen-2-yl piperidine-1-carboxylate], for which the half-life at 2 μM in series [1] was 106 min; in series [2], over 289 min.

In the case of `CCC(=O)Oc1cc(N2CCc3c(nc(OC[C@@]45CCCN4C[C@H](F)C5)nc3N3CCC[C@]4(C3)NC(=O)NC4=O)C2)c2c(CC)c(F)ccc2c1` [Example 29, 4-(4-((R)-2,4-dioxo-1,3,7-triazaspiro[4.5]decan-7-yl)-2-(((2R,7aS)-2-fluorotetrahydro-1H-pyrrolizin-7a(5H)-yl)methoxy)-5,8-dihydropyrido[3,4-d]pyrimidin-7(6H)-yl)-5-ethyl-6-fluoronaphthalen-2-yl propionate], the figures for the half-life at 2 μM in series [1] and in series [2] were 2 min and 33 min, respectively.

Regarding `CCCC(=O)Oc1cc(N2CCc3c(nc(OC[C@@]45CCCN4C[C@H](F)C5)nc3N3CCC[C@]4(C3)NC(=O)NC4=O)C2)c2c(CC)c(F)ccc2c1` [Example 33, 4-(4-((R)-2,4-dioxo-1,3,7-triazaspiro[4.5]decan-7-yl)-2-(((2R,7aS)-2-fluorotetrahydro-1H-pyrrolizin-7a(5H)-yl)methoxy)-5,8-dihydropyrido[3,4-d]pyrimidin-7(6H)-yl)-5-ethyl-6-fluoronaphthalen-2-yl butyrate], the half-life at 2 μM in series [1] is under 5 min; in series [2], 62 min.

In the case of `CCc1c(F)ccc2cc(OC(=O)N3CCC[C@H](C)C3)cc(N3CCc4c(nc(OC[C@@]56CCCN5C[C@H](F)C6)nc4N4CCC[C@]5(C4)NC(=O)NC5=O)C3)c12` [Example 59, 4-(4-((R)-2,4-dioxo-1,3,7-triazaspiro[4.5]decan-7-yl)-2-(((2R,7aS)-2-fluorotetrahydro-1H-pyrrolizin-7a(5H)-yl)methoxy)-5,8-dihydropyrido[3,4-d]pyrimidin-7(6H)-yl)-5-ethyl-6-fluoronaphthalen-2-yl (S)-3-methylpiperidine-1-carboxylate], the half-life at 2 μM in series [1] and in series [2] was over 289 min throughout.

With `CCc1c(F)ccc2cc(OC(=O)N3CCOCC3)cc(N3CCc4c(nc(OC[C@@]56CCCN5C[C@H](F)C6)nc4N4CCC[C@]5(C4)NC(=O)NC5=O)C3)c12` [Example 60, 4-(4-((R)-2,4-dioxo-1,3,7-triazaspiro[4.5]decan-7-yl)-2-(((2R,7aS)-2-fluorotetrahydro-1H-pyrrolizin-7a(5H)-yl)methoxy)-5,8-dihydropyrido[3,4-d]pyrimidin-7(6H)-yl)-5-ethyl-6-fluoronaphthalen-2-yl morpholine-4-carboxylate], the half-life at 2 μM is 79 min in series [1] and over 289 min in series [2].

For the origin of these results see US20250376483A1, “PRODRUGS OF PAN-KRAS INHIBITORS” (Mirati Therapeutics, Inc., priority 2022, published 2025).
